Reference: patent US20210038681A1, “PHARMACEUTICAL COMPOSITION FOR TREATING VIRAL HEPATITIS C” (priority 2018, published 2021)
Where two headings read alike, the source gives them in different places.

Tests used:
[1] = system: HCV 1a Wild-type replicon; experiment: microbe, parasite or virus in culture; settings: Hepatitis C virus, Huh-7, read-out: Mean EC50 (nM) ± SD
[2] = system: HCV 1a Wild-type replicon; settings: read-out: Mean EC50 (nM) ± SD; HCV 1a variant Wild-type; Huh7-Lunet cells

| Structure (SMILES) | EC50 [1] [nM] | EC50 [2] [nM] |
| --- | --- | --- |
| CNC(=O)c1c(-c2ccc(F)cc2)oc2cc(N(CCO)S(C)(=O)=O)c(C3CC3)cc12 [HCV-796] | 11.8 | – |
| C[C@@]1(F)[C@H](O)[C@@H](CO)O[C@H]1n1ccc(N)nc1=O [PSI-6130] | – | 770 |
